Results reported in patent US20030187007A1, “Inhibitors of protein kinase for the treatment of disease” (priority 2001, published 2003).

How the values were obtained:
Type in all cases: biochemical
[1] = molecular target: CDK2 complexed with cyclin A (Homo sapiens, UniProt P24941); experiment: Cyclin dependent kinase activity assay, phosphorylation of synthetic peptide PKTPKKAKKLRRR; conditions: 0.1 mM ATP, read-out: CDK 2 Activity*
Outline: (§1)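 Radiometric filter-binding assay: 0.1 mM ATP plus ³³P-γ-ATP, 0.1 mM peptide, 1 mM DTT, 10 mM MgCl2 in 100 mM HEPES pH 7.4, with enzyme complex at 0.3–0.4 U/mL. Incubated 2 h at 30 °C; peptide captured on P81 phosphocellulose, washed with 0.5% phosphoric acid and counted by scintillation.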

CDK5 complexed with p25 = CDK5 complexed with p25 (Homo sapiens, UniProt Q00535); experiment: as above; conditions: CDK5 complexed with p25, 0.1 mM ATP; read-out: CDK 5 Activity*
CDK5 complexed with p25, sequence (Q00535 whole entry): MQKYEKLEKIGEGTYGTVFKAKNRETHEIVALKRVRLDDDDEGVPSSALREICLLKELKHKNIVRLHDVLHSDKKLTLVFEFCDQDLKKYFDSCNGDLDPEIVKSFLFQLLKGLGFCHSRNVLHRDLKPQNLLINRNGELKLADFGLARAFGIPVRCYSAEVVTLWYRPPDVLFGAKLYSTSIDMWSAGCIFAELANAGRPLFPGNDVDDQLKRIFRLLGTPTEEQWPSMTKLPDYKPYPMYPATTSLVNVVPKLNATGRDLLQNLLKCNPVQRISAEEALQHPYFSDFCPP
CDK5 complexed with p25, sequence (Q15078 99-307 partner limits assumed): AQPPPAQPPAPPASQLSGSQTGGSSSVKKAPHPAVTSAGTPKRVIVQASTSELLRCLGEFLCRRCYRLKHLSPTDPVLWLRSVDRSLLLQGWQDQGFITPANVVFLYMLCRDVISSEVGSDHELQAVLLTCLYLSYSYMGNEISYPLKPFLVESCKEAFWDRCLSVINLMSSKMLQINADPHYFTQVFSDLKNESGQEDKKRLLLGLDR
Outline: as §1

KDR = KDR (Homo sapiens, UniProt P35968); experiment: Enzyme assay for  (KDR), IC50 determination; conditions: 50 nM KDR, 500 μM ATP
KDR, sequence (P35968 20-1356): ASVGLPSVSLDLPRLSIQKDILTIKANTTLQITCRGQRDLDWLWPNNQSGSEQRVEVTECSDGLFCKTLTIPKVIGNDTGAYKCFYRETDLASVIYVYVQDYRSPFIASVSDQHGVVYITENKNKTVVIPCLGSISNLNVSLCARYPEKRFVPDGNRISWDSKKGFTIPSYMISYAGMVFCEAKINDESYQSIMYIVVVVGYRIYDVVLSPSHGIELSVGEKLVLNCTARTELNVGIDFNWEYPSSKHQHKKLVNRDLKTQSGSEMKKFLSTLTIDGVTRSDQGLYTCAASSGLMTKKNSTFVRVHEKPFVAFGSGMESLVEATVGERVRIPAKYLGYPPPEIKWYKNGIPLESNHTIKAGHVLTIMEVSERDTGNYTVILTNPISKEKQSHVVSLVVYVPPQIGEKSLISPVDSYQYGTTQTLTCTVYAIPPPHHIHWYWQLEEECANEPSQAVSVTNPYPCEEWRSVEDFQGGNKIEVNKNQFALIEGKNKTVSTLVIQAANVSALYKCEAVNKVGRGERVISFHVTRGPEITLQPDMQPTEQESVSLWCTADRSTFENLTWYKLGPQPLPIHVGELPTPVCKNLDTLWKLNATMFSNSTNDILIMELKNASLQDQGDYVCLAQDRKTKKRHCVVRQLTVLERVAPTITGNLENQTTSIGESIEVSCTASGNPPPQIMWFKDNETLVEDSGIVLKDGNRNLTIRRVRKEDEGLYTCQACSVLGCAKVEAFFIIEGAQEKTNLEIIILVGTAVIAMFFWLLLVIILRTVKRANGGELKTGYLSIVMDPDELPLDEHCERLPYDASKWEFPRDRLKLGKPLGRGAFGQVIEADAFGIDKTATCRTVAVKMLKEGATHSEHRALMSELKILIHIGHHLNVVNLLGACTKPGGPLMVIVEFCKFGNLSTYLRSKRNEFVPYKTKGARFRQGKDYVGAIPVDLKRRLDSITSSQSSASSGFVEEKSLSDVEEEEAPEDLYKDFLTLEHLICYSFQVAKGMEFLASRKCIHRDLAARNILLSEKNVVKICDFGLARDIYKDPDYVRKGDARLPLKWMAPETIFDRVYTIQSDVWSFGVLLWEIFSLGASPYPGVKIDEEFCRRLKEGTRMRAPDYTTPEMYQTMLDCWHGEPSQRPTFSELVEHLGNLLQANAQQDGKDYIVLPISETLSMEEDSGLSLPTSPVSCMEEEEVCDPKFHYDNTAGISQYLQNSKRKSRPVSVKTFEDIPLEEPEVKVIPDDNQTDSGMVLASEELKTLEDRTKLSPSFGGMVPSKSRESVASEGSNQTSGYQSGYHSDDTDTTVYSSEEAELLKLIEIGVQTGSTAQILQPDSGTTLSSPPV
Method: Enzyme assays for IC50 determinations were performed in 96-well titer plates, in a total reaction volume of 50 μL. Each reaction contained 1.5 μL of appropriate dilutions of inhibitor, 50 mM Hepes, pH 7.4, 1 mM DTT, 10 mM magnesium chloride, 2 mM phospho-poly(E4Y) (Sigma Chemical Company), 500 μM unlabeled ATP, 0.0025 μM [^33P]ATP (Amersham Pharmacia Biotech), and 50 nM KDR. All components except KDR were added to the wells, and the reaction was started by the addition of the enzyme. The reactions were mixed and incubated at room temperature for 1 hr, after which the reactions were quenched by the addition of 50 μL of 8% phosphoric acid. At this point, 90 μL aliquots of the samples were applied to positively charged DEAE 96-well filter plates (Millipore Corporation MADENOB10). The plates were incubated for 30 min at room temperature. The samples were aspirated and the wells were washed 3 times with 200 μL of 0.5% phosphoric acid. To each well, 50 μL of scintillation cocktail was added and counted for 60 sec in a TopCount microplate scintillation counter (Packard Instrument Company). The concentration of a compound that inhibited the activity of KDR by 50% (IC50) was determined based its inhibition curve.

| SMILES | IC50 [1] [nM] | IC50 (CDK5 complexed with p25) [nM] | IC50 (KDR) [nM] |
| --- | --- | --- | --- |
| Nc1nccc(-c2cc(-c3ccc4[nH]ccc4c3)ccc2O)n1 [Example 60, 2-(2-Amino-pyrimidin-4-yl)-4-(1H-indol-5-yl)-phenol] | 2000 to 5000 | < 500 | < 1000 |
| Nc1nc(-c2cc(-c3ccc(O)cc3)ccc2O)cc(N2CCC[C@@H]2CO)n1 [Example 80, 3-[2-Amino-6-(2S-hydroxymethyl-pyrrolidin-1-yl)-pyrimidin-4-yl]-biphenyl-4,4′-diol] | < 500 | < 500 | 1000 to 20000 |
| Nc1nc(-c2cc(-c3ccc(O)cc3)ccc2O)cc(-c2ccccc2CO)n1 [Example 83, 3-[2-Amino-6-(2-hydroxymethyl-phenyl)-pyrimidin-4-yl-biphenyl-4,4]-diol] | < 500 | < 500 | < 1000 |
| Nc1nc(-c2ccc(CO)cc2)cc(-c2cc(-c3ccc(O)cc3)ccc2O)n1 [Example 85, 3-[2-Amino-6-(4-hydroxymethyl-phenyl)-pyrimidin-4-yl]-biphenyl-4,4′-diol] | < 500 | < 500 | < 1000 |
| Nc1nc(-c2cccc([N+](=O)[O-])c2)cc(-c2cc(-c3ccc(O)cc3)ccc2O)n1 [Example 88, 3-[2-Amino-6-(3-nitro-phenyl)-pyrimidin-4-yl]-biphenyl-4,4′-diol] | < 500 | < 500 | 1000 to 20000 |
| Nc1nc(-c2ccc([N+](=O)[O-])cc2)cc(-c2cc(-c3ccc(O)cc3)ccc2O)n1 [Example 89, 3-[2-Amino-6-(4-nitro-phenyl)-pyrimidin-4-yl]-biphenyl-4,4′-diol] | < 500 | < 500 | 1000 to 20000 |
| Nc1cccc(-c2cc(-c3cc(-c4ccc(O)cc4)ccc3O)nc(N)n2)c1 [Example 91, 3-[2-Amino-6-(3-amino-phenyl)-pyrimidin-4-yl]-biphenyl-4,4′-diol] | < 500 | < 500 | < 1000 |

The next lines start with the values.

| IC50 [1] [nM] | IC50 (CDK5 complexed with p25) [nM] | IC50 (KDR) [nM] | SMILES |
| --- | --- | --- | --- |
| < 500 | < 500 | 1000 to 20000 | Nc1nc(-c2cc(-c3ccc(O)cc3)ccc2O)cs1 [Example 61, 3-(2-Amino-thiazol-4-yl)-biphenyl-4,4′-diol] |
| < 500 | < 500 | 1000 to 20000 | Nc1nc(-c2cc(-c3ccc(O)cc3)ccc2O)cc(N2CCOCC2)n1 [Example 81, 3-(2-Amino-6-morpholin-4-yl-pyrimidin-4-yl)-biphenyl-4,4′-diol] |
| < 500 | < 500 | < 1000 | Nc1nc(-c2cccc(CO)c2)cc(-c2cc(-c3ccc(O)cc3)ccc2O)n1 [Example 84, 3-[2-Amino-6-(3-hydroxymethyl-phenyl)-pyrimidin-4-yl]-biphenyl-4,4′-diol] |
| < 500 | < 500 | 1000 to 20000 | Nc1nc(N[C@@H](CO)Cc2ccccc2)cc(-c2cc(-c3ccc(O)cc3)ccc2O)n1 [Example 86, 3-[2-Amino-6-(1R-benzyl-2-hydroxy-ethylamino)-pyrimidin-4-yl]-biphenyl-4,4′-diol] |
| < 500 | < 500 | 1000 to 20000 | Nc1nc(N[C@H](CO)Cc2ccccc2)cc(-c2cc(-c3ccc(O)cc3)ccc2O)n1 [Example 87, 3-[2-Amino-6-(1S-benzyl-2-hydroxy-ethylamino)-pyrimidin-4-yl]-biphenyl-4,4′-diol] |
| < 500 | < 500 | < 1000 | Nc1ccc(-c2cc(-c3cc(-c4ccc(O)cc4)ccc3O)nc(N)n2)cc1 [Example 90, 3-[2-Amino-6-(4-amino-phenyl)-pyrimidin-4-yl]-biphenyl-4,4′-diol] |
